# Measured values taken from US20220220041A1, “USE OF UREA AS AN ANTIMICROBIAL ADDITIVE IN AN AQUEOUS SUSPENSION” (Omya International AG, priority 2019, published 2022).
# How the values were obtained:
# [1] = system: non-sterile calcium carbonate slurry (H90), environmental bacteria; experiment: Example 3 preservation efficacy: H60 slurry with industrial grade urea solution, non-sterile H90 inoculum, TVC; assay type: cell-based; details: industrial grade urea 5.5%, calcium carbonate 69%, water 25.5% w/w, 30° C.
# Method: (§1) All quoted bacterial counts (Total viable counts (TVC) values), unless otherwise indicated, are given in cfu/ml and determined after at least 2 days following plate-out and incubation at 30° C. and in accordance with the counting method described in “Bestimmung von aerobe mesophilen Keimen”, Schweizerisches Lebensmittelbuch, chapter 56, section 7.01, edition of 1985, revised version of 1988.
# (§2) Unless otherwise stated, per tryptic soy agar plate (TSA, prepared using BD 236950) 0.1 ml of a solution or suspension is plated. Counts from 10000 cfu/ml to 99999 cfu/ml are reported as >1E4 cfu/ml. Counts from 100000 cfu/ml to 999999 cfu/ml are reported as >1E5 cfu/ml. Counts above 1000000 cfu/ml are reported as >1E6 cfu/ml.
# (§3) Non-sterile slurries (H60 or H90) contain contamination with environmental bacteria at a TVC>100000 cfu/ml. The contamination originates spontaneously and a bacterial burden of at least>100000 cfu/ml is confirmed prior use as inoculum by TVC. The following bacterial species are known to occur, as identified by 16S RNA sequencing or MALDI-TOF-MS analysis: Rhizobium radiobacter, Brevundimonas intermedia, Brevundimonas diminiuta, Sphingomonas sp., Pseudomonas stutzeri, Pseudomonas sp., Comomonas aquatic.
# (§4) 50 g sterile calcium carbonate slurry (H60) with a solid content of 77.3 wt.-%, based on the total weight of the H60 slurry is supplemented with industrial grade 50% (w/w) urea solution (Yara Canda Inc.) or water to different final concentrations. The industrial grade contained natural resident (i.e. bacteria in a non-growing state) bacteria. The bacterial of the industrial urea burden is 5 cfu/3 ml as determined by TVC. The species are identified by characterizing the grown colonies from the TVC by 16 S RNA sequencing, known to the person skilled in the art.
# (§5) The samples are further artificially inoculated with 1 ml non-sterile calcium carbonate slurry (H60), 1 ml non-sterile calcium carbonate slurry (H90), 0.02 ml overnight culture of Escherichia coli (DSMZ 46295) and 0.02 ml overnight culture Pseudomonas putida. The control sample are not inoculated. […]
# [2] = system: natural resident bacteria of industrial grade urea, not inoculated; experiment: Example 3 preservation efficacy: H60 slurry with industrial grade urea solution, not inoculated, TVC; assay type: cell-based; details: industrial grade urea 5.5%, calcium carbonate 69%, water 25.5% w/w, inoculum none, 30° C.
# Method: as §1, §2, §4
# The species identified are Sporosarcina koreensis, (Gram positive, urease positive, spore forming), Paenibacillus sp., (Gram positive, urease positive, spore forming) and Halobacillus trueperi (Gram positive, urease negative, spore forming).
# as §5
# [3] = system: non-sterile calcium carbonate slurry (H60), environmental bacteria; experiment: Example 4 preservation efficacy: H60 slurry with 61% (w/w) urea solution, non-sterile H60 inoculum, TVC; assay type: cell-based; details: 30° C.
# Method: as §1, §2, §3
# 50 g sterile calcium carbonate slurry (H60) with a solid content of 78.3 wt.-%, based on the total weight of the H60 slurry are supplemented with 61% (w/w) urea solution to different final concentrations. The samples are inoculated with 1 ml non-sterile calcium carbonate slurry (H60). Samples are incubated at 30° C. and TVC and pH are determined at various time points (0 day, 1 day, 4, days, 11 days).
# [4] = system: non-sterile calcium carbonate slurry (H90), environmental bacteria; experiment: Example 2 preservation efficacy: H60 slurry with 61 wt.-% urea solution, non-sterile H90 inoculum, TVC; assay type: cell-based; details: 30° C.
# Method: as §1, §2, §3
# 50 g sterile slurry H60 with a solid content of 76.5 wt.-%, based on the total weight of the H60 slurry is supplemented with different amounts of 61 wt.-% urea solution or water. The samples are then inoculated with 1 ml non-sterile calcium carbonate slurry (H60), 1 ml non-sterile calcium carbonate slurry (H90), 0.02 ml overnight culture of Escherichia coli (DSMZ 46295) and 0.02 ml overnight culture of Pseudomonas putida. The control samples are not inoculated. Samples are incubated at 30° C. and the TVC and pH are determined at various time points (0 day, 1 day, 4, days, 8 days, 9 days and/or 13 days).
# Pseudomonas putida = experiment: Example 3 preservation efficacy: H60 slurry with industrial grade urea solution, P. putida inoculum, TVC; assay type: cell-based; details: industrial grade urea 5.5%, calcium carbonate 69%, water 25.5% w/w, 30° C.
# Method: as §1, §2
# (§6) For the preparation of inoculum with a single bacterial species (for example Escherichia coli (DSMZ 46295) or Pseudomonas putida), bacteria are spread onto Tryptic soy broth agar (BD, 236950) by dilution streaking followed by incubation at 30° C. for at least 24 h until colonies appear. Overnight cultures are generated by inoculation of 3 ml Tryptic soy broth (Fluka 22092) with a single colony followed incubation with agitation at […] at 30° C. for 24 h.
# as §4, §5
# rats = details: cited from earlier work
# [5] = system: Escherichia coli (DSMZ 46295); experiment: Example 3 preservation efficacy: H60 slurry with industrial grade urea solution, E. coli inoculum, TVC; assay type: cell-based; details: industrial grade urea 5.5%, calcium carbonate 69%, water 25.5% w/w, 30° C.
# Method: as §1, §2, §6, §4, §5
# [6] = urea 0.40%, calcium carbonate 75.61%, water 23.99% w/w
# [7] = urea 1.10%, calcium carbonate 75.48%, water 23.42% w/w
# [8] = urea 2.80%, calcium carbonate 75.21%, water 21.98% w/w
# [9] = Table 2, urea 2.75%, calcium carbonate 73.1%, water 24.15% w/w
# [10] = Table 2, urea 7.6%, calcium carbonate 67.1%, water 25.3% w/w
# [11] = Table 3, urea 0.65%, calcium carbonate 75.7%, water 23.65% w/w
# [12] = Table 3, urea 2.75%, calcium carbonate 73.1%, water 24.15% w/w
structure (smiles),measurement,setting,value
NC(N)=O [urea],TVC cfu/ml Day 1,[1],>1E4 cfu/ml
same,TVC cfu/ml Day 4,[1],300 cfu/ml
same,TVC cfu/ml Day 8,[1],<100 cfu/ml
same,TVC cfu/ml Day 11,[1],<100 cfu/ml
same,TVC cfu/ml Day 13,[1],<100 cfu/ml
same,TVC cfu/ml Day 4,[2],<100 cfu/ml
same,TVC cfu/ml Day 8,[2],100 cfu/ml
same,TVC cfu/ml Day 11,[2],<100 cfu/ml
same,TVC cfu/ml Day 13,[2],<100 cfu/ml
same,TVC cfu/ml Day 1,[2]; detection limit 100 cfu/ml,<100 cfu/ml
same,TVC cfu/ml Day 4,[3]; [6],>1E5 cfu/ml
same,TVC cfu/ml Day 11,[3]; [6],>1E5 cfu/ml
same,TVC cfu/ml Day 1,"[3]; urea 0.40%, calcium carbonate 75.61%, water 23.99% w/w, detection limit 100 cfu/ml",>1E5 cfu/ml
same,TVC cfu/ml Day 1,[3]; [7],>1E5 cfu/ml
same,TVC cfu/ml Day 4,[3]; [7],>1E5 cfu/ml
same,TVC cfu/ml Day 11,[3]; [7],>1E5 cfu/ml
same,TVC cfu/ml Day 1,[3]; [8],>1E4 cfu/ml
same,TVC cfu/ml Day 4,[3]; [8],600 cfu/ml
same,TVC cfu/ml Day 11,[3]; [8],<100 cfu/ml
same,TVC cfu/ml Day 1,[4]; [9],<100 cfu/ml
same,TVC cfu/ml Day 4,[4]; [9],<100 cfu/ml
same,TVC cfu/ml Day 8,[4]; [9],<100 cfu/ml
same,TVC cfu/ml Day 13,[4]; [9],<100 cfu/ml
same,TVC cfu/ml Day 1,[4]; [10],<100 cfu/ml
same,TVC cfu/ml Day 4,[4]; [10],<100 cfu/ml
same,TVC cfu/ml Day 8,[4]; [10],<100 cfu/ml
same,TVC cfu/ml Day 13,[4]; [10],<100 cfu/ml
same,TVC cfu/ml Day 1,[4]; [11],>1E5 cfu/ml
same,TVC cfu/ml Day 4,[4]; [11],>1E5 cfu/ml
same,TVC cfu/ml Day 1,[4]; [12],<100 cfu/ml
same,TVC cfu/ml Day 4,[4]; [12],<100 cfu/ml
same,TVC cfu/ml Day 9,[4]; [12],<100 cfu/ml
same,TVC cfu/ml Day 1,Pseudomonas putida,<100 cfu/ml
same,TVC cfu/ml Day 4,Pseudomonas putida,<100 cfu/ml
same,TVC cfu/ml Day 8,Pseudomonas putida,<100 cfu/ml
same,TVC cfu/ml Day 11,Pseudomonas putida,<100 cfu/ml
same,TVC cfu/ml Day 13,Pseudomonas putida,<100 cfu/ml
same,LD50,rats,15000 mg/kg
same,TVC cfu/ml Day 1,[5],<100 cfu/ml
same,TVC cfu/ml Day 4,[5],<100 cfu/ml
same,TVC cfu/ml Day 8,[5],<100 cfu/ml
same,TVC cfu/ml Day 11,[5],<100 cfu/ml
same,TVC cfu/ml Day 13,[5],<100 cfu/ml
